Experimental data from BindingDB's records for doi:10.3109/14756366.2012.677838 (Inonu University, 2013).

Tests used:
Carbonic anhydrase 1 = Carbonic anhydrase 1 (Homo sapiens, UniProt P00915); experiment: CA Enzyme Assay; details: pH 10
Procedure: (§1) CA activity was measured by the Maren method which is based on determination of the time required for the pH to decrease from 10.0 to 7.4 due to CO2 hydration [Maren et al., J. Pharm. Exp. Ther., 130:2629-2634]. The assay solution was 0.5 M Na2CO3/0.1 M NaHCO3 (pH 10.0) and Phenol Red was added as the pH indicator.

Carbonic anhydrase 2 = Carbonic anhydrase 2 (Homo sapiens, UniProt P00918); experiment: CA Enzyme Assay; details: pH 10
Procedure: as §1

Chain of Carbonic anhydrase 1 (P00915 whole entry): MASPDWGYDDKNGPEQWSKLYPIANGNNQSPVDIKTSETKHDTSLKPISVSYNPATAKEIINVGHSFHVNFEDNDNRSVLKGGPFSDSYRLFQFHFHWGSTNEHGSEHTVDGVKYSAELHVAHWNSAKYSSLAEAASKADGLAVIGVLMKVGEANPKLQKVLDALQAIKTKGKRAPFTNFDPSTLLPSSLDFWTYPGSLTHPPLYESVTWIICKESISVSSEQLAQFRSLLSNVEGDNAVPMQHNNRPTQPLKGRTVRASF

SMILES | IC50 (Carbonic anhydrase 1) | IC50 (Carbonic anhydrase 2)
COCCN1CN(Cc2cc(=O)oc3c(O)c(O)ccc23)c2ccccc21 [1-(2-Methoxyethyl)-3-(4-methyl-7,8-dihydroxy-2H-chromen-2-one)benzimidazolium chloride (3d)] | 32.6 µM | 41.4 µM
C=CCN1CN(Cc2cc(=O)oc3c(O)c(O)ccc23)c2ccccc21 [1-Allyl-3-(4-methyl-7,8-dihydroxy-2H-chromen-2-one)benzimidazolium chloride (3c)] | 48.1 µM | 29.7 µM
Cc1cccc(CN2CN(Cc3cc(=O)oc4c(O)c(O)ccc34)c3ccccc32)c1 [1-(3-Methylbenzyl)-3-(4-methyl-7,8-dihydroxy-2H-chromen-2-one)benzimidazolium chloride (3g)] | 22.1 µM | 28.9 µM
CCOCCN1CN(Cc2cc(=O)oc3c(O)c(O)ccc23)c2ccccc21 [1-(2-Ethoxyethyl)-3-(4-methyl-7,8-dihydroxy-2H-chromen-2-one)benzimidazolium chloride (3e)] | 32.9 µM | 33.2 µM
